Experimental data: ChEMBL document CHEMBL1126516, “Synthesis, biological activity and electrostatic properties of 3-[2-(dimethylamino)ethyl]-5-[(3-amino-1,2,4-thiadiazol-5-yl)methyl]-1H-indole, a novel 5-HT1D receptor agonist” (Bioorg Med Chem Lett, 1993)

Organism: Oryctolagus cuniculus
Test: Compound was tested for the contraction of New Zealand white rabbit saphenous vein
Assay type: functional
Work on CNS(=O)(=O)Cc1ccc2[nH]cc(CCN(C)C)c2c1 yielded an EC50 of 631 nM. Compound NCCc1c[nH]c2ccc(O)cc12 [SEROTONIN] has an EC50 of 158 nM. With CN(C)CCc1c[nH]c2ccc(Cc3nc(N)no3)cc12 the EC50 was 501 nM. Compound CN(C)CCc1c[nH]c2ccc(Cc3nc(N)ns3)cc12 has an EC50 of 10 nM.
